One block for each molecule: values may come before it.
Assays:
[1] = Stability of crystal forms under high temperature; type: physicochemical; conditions: ventilated oven at 80° C. for 7 days, then characterized
Procedure: (§1) As compared with the solvate, the anhydrate and hydrate are more useful as pharmaceutical crystal forms. The relative stability of the crystal form is an important indicator to be investigated in the research of drug polymorph, and the stability under high temperature, high humidity, strong light, and in water is investigated for the crystal forms I and II.
The crystal forms I and II prepared in Example 6 and 15 were respectively placed in a ventilated oven at 80° C. for 7 days and then characterized, and the result was shown in Table 4.

[2] = Stability of crystal forms under high humidity; type: physicochemical
Procedure: as §1
The crystal forms I and II prepared in Example 6 and 15 were respectively placed in a constant temperature and humidity chamber at 80° C. and 75% RH for 7 days and then characterized, and the result was shown in Table 4.

[3] = Stability of crystal forms suspended in water; type: physicochemical; conditions: suspended in water at 25° C. for 7 days
Procedure: as §1
The crystal forms I and II prepared in Example 6 and 15 were placed in water at 25° C. and suspended for 7 days and then characterized, and the result was shown in Table 4.

[4] = Stability of crystal forms under strong light; type: physicochemical; conditions: light stable box, illumination of 4500lux, 7 days
Text: as §1
The crystal forms I and II prepared in Example 6 and 15 were respectively placed in a light stable box with illumination of 4500lux for 7 days and then characterized, and the result was shown in Table 4.

GAGA receptor = conditions: cited from earlier work
GABA = conditions: cited from earlier work
NMDA receptors = conditions: cited from earlier work
slow Ca^2+ channel = conditions: cited from earlier work
[5] = system: kainate-induced excitotoxicity; conditions: cited from earlier work
[6] = compared with propofol; cited from earlier work
brain = conditions: cited from earlier work

- Crystal form found after High temperature (80° C.) ([1]; listed as II): I, II
- Crystal form found after High humidity (40° C., 75% RH) ([2]; constant temperature and humidity chamber, 40° C., 75% RH, 7 days): I (few), II
- Crystal form found after Water ([3]; listed as II): I (few), II
SMILES: CC(C)c1cc(-c2cc(C(C)C)c(O)c(C(C)C)c2)cc(C(C)C)c1O [crystal form II, 3,3′,5,5′-tetraisopropyl-4,4′-diphenol]
- Crystal form found after High temperature (80° C.) [1]: tendency of converting to the crystal form I
- Stability under high humidity conditions ([2]; 80° C. and 75% RH for 7 days (as printed in text)): tendency of converting to the crystal form I
- Crystal form found after Water [3]: tendency of converting to the crystal form I

- Crystal form found after Light [4]: good stability
SMILES: CC(C)c1cc(-c2cc(C(C)C)c(O)c(C(C)C)c2)cc(C(C)C)c1O [crystal form I, 3,3′,5,5′-tetraisopropyl-4,4′-diphenol]

SMILES: CC(C)c1cc(-c2cc(C(C)C)c(O)c(C(C)C)c2)cc(C(C)C)c1O [3,3′,5,5′-tetraisopropyl-4,4′-diphenol]
- Affinity for the GAGA receptor (GAGA receptor): strong affinity
- GABA agonistic effect (GABA): GABA agonistic effect
- Antagonism of NMDA receptors (NMDA receptors): could antagonize NMDA receptors
- Ca^2+ influx in the slow Ca^2+ channel (slow Ca^2+ channel): regulate Ca^2+ influx
- Effect on kainate-induced excitotoxicity [5]: protective effect
- Antioxidant effect [6]: significantly stronger than propofol
- Protective effect of brain (brain): strong protective effect of brain

— patent publication US20150376099A1, “New 3,3',5,5'-Tetraisopropyl-4,4'-Diphenol Crystal Form And Preparation Method Thereof” (XI' AN LIBANG PHARMACEUTICAL CO., LTD., priority 2013, published 2015)
